Measurements published in US20050009023A1, “Glucocorticoid-induced receptor and methods of use” (priority 2001, published 2005).

Assays:
[1] = tested on: GIR mRNA in rat prefrontal cortex; assay: GIR mRNA expression following chronic amphetamine administration (competitive RT-PCR); type: in vivo; conditions: for GIR mRNA levels in prefrontal cortex: mean±SE, n=6
Procedure: (§1) GIR mRNA Expression Following Chronic Amphetamine Administration. Male Sprague-Dawley rats (200-250g, Harlan Sprague-Dawley Laboratories, Indianapolis, Ind.) received subcutaneous injection of either d-amphetamine (AMPH) (2.5 mg/kg) or saline (1 ml/kg) in their home cages once daily for 5 consecutive days (days 1-5). On day 9, four days following completion of this pre-treatment regimen, all animals were transferred to Residential Activity Chambers (RACs) (Segal and Kuczenski, 1987; Richtand et al., 2000), and received saline injection (1 ml/kg) on days 10 and 11 to measure conditioned response to injection. On day 12, seven days following completion of the pre-treatment regimen, all rats received AMPH (2.5 mg/kg) and locomotor activity was determined by photobeam monitoring for 150 minutes following injection. Locomotor activity is expressed as crossovers, defined as the number of times the animal crosses into any of four quadrants subdividing the enclosure. All animals were sacrificed by decapitation 4 hours following injection and total RNA was extracted from prefrontal cortex for determination of GIR mRNA expression. In a separate experiment, rats were injected with either AMPH (2.5 mg/kg) or saline (1 ml/kg) for 5 consecutive days, and sacrificed by decapitation 7 days after the last injection without the final AMPH challenge. Thus, four groups were generated: SAL-AMPH (Saline×5 days and AMPH at challenge), AMPH-AMPH (AMPH×5 days and AMPH at challenge), SAL (Saline×5 days), and AMPH (AMPH×5 days).
Construction of Competitor DNA and Quantitative RT-PCR. To construct the mutant template for competitive PCR, a 20 bp GIR sequence (5′-[…]-3′, 1213-1232 bp in FIG. 1; SEQ ID NO: 18) was incorporated into the upstream primer so that a rat GIR cDNA fragment was amplified by RT-PCR using the chimeric upstream primer (5′-[…]-3′, 1213-1232 bp in FIG. 1; SEQ ID NO:19) and the downstream primer (5′-CGGCCACAGTGGGTTCCAC-3′, 1575-1557 in FIG. 1; SEQ ID NO:13). The 262 bp PCR product was subcloned into pGEM-T vector (Promega, Madison, Wis.). The plasmid DNA was purified (Qiagen, Valencia, Calif.) and insert was verified by DNA sequencing. A fragment containing the mutant rat GIR template (262 bp) was released by EcoRI digestion and purified by agarose gel electrophoresis. DNA concentration was determined spectrophotometrically. Serial dilutions of mutant template were prepared.
The amount of GIR mRNA was quantitated by competitive RT-PCR as described previously (Miao et al., 2000). Briefly, reverse transcription was performed with 2 μg of total RNA using a non-specific random hexamer primer (Promega, Madsion, Wis.). One μl of first strand cDNA was mixed with known amounts of linearized competitor DNA ranging from […], and subjected to co-amplification with GIR-specific primers (5′-[…]-3′, 1213-1232 bp, SEQ ID NO:IS; and 5′-CGGCCACAGTGGGTTCCAC-3′, 1575-1557 bp in FIG. 1, SEQ ID NO:14). PCR was run for 30 cycles of 94° C./1 min, 60° C./2 min 72° C./3 min, and the PCR products were electrophoresed on 1.2% agarose gel. The intensities of bands, corresponding to the products from the GIR mRNA and the competitor with 101-bp size difference, was analyzed densitometrically by BioImage system combined with NIH software (Bio-Rad, Hercules, Calif.). The intensity ratios between the two bands were logarithmically plotted against the known initial input of competitor template, and the amount of GIR mRNA in the total RNA samples was calculated by linear regression. […]

Male Sprague-Dawley rats = assay: Locomotor activity (crossovers) after amphetamine challenge, behavioral sensitization; type: in vivo, rat; conditions: AMPH 2.5 mg/kg challenge, mean±SE
Procedure: as §1

SMILES: C[C@H](N)Cc1ccccc1 [amphetamine, D-Amphetamine]
- GIR mRNA levels in prefrontal cortex, increase of AMPH-AMPH rats compared to SAL-AMPH rats ([1]; AMPH 2.5 mg/kg s.c. x5 days, AMPH challenge 7 days after, sacrificed 4 hours after injection, n=6, P<0.05): 1.38 fold
- GIR mRNA levels in prefrontal cortex, increase of AMPH rats compared to SAL rats ([1]; AMPH 2.5 mg/kg x5 days, no challenge injection, 7 days after last injection, n=6, P<0.05): 1.70 fold
- GIR mRNA levels in prefrontal cortex ([1]; AMPH rats (AMPH x5 days, no challenge), 7 days after amphetamine ceased): 3.65±0.22 fg/100 ng total RNA
- GIR mRNA levels in prefrontal cortex ([1]; AMPH-AMPH rats (AMPH x5 days and AMPH at challenge), 2.5 mg/kg s.c.): 2.97(±0.26 fg/100 ng total RNA
- GIR mRNA levels in prefrontal cortex ([1]; SAL-AMPH rats (saline x5 days and AMPH 2.5 mg/kg at challenge)): 2.27(±0.22 fg/100 ng total RNA
- locomotion at 12-60 min post-injection (focused stereotypy phase) (Male Sprague-Dawley rats; AMPH-AMPH rats, n=6, P<0.0001): 50.20±12.63 crossovers/12-60 min
- locomotion at 60-150 min (post-stereotypy locomotion phase) (Male Sprague-Dawley rats; AMPH-AMPH rats, n=6, P<0.05): 496.67±70.28 crossovers/60-150min
- locomotion at 12-60 min post-injection (focused stereotypy phase) (Male Sprague-Dawley rats; SAL-AMPH rats, n=6): 286.00±27.57 crossovers/12-60 min
- locomotion at 60-150 min (post-stereotypy locomotion phase) (Male Sprague-Dawley rats; SAL-AMPH rats, n=6): 312.25±29.17 crossovers/60-150min
